Reference: PMC7377474, “Preclinical characterization of CPL302-253, a selective inhibitor of PI3Kδ, as the candidate for the inhalatory treatment and prevention of Asthma” (PLoS ONE, 2020)
Read-outs that look alike come from different tables or passages of the source.

Legend:
basophils = test: Basophils activation (Flow CAST Basophil Activation Test); format: cell-based, human; details: for IC50: anti-FcεRI antibody; for IgE (basophil activation, Fig 4D): concentration 0 = 100
Description: The study was performed using Flow CAST Basophil Activation Test (Buhlmann) according to manufacturer’s protocol with modifications. In brief to U bottom 96-well plate 50 μl of stimulus solution (stimulating antibody specific for the high-affinity IgE receptor FcεRI) or assay bufferwas added. Subsequently to some wells, 50 μl of inhibitor at different concentrations in assay buffer was added. In the next step 50 μl of EDTA collected fresh human blood was added to each well followed by 50 μl of staining reagent (diluted 2:3 in assay buffer). The cells were incubated for 25 min at 37°Cin humidified incubator in the presence of 5% CO2. After incubation cells were centrifuged and erythrocytes were lysed with pre-warmed (18–28°C) Lysing Reagent. After centrifugation cells were suspended in Wash Buffer and analysed by FACSCalibur. Data were analysed using CellQuestPro and FlowJo software.

in vitro = format: cell-based; details: human
Description: The study was performed by Cyprotex according to service provider’s protocol. In brief NHBE cells were plated on 96-well plate. The cells were dosed with test compound at 0.0457, 0.137, 0.412, 1.24, 3.7, 11.1, 33.3, 100 μM and incubated for 48 h. The cells were loaded with dye or antibody relevant for each health marker and scanned using fluorescent cell imager. The following parameters were studied: cell count, nuclear size, DNA structure, mitochondrial mass, mitochondrial membrane potential, oxidative stress, glutathione content. The baseline for each parameter was determined based on vehicle control sample. The software calculates the percentage of cells that are low or high responders (depending on the biological significance of a particular readout). The vehicle control wells are then used to determine significance limits for wells that have a greater than expected fraction of low or high responders. The minimum effective concentration was determined from the lowest concentration whose mean value exceeds the significance level and provided either a clear dose-response relationship or at least two consecutive concentration points past the significance level.

[1] = Description: Unless otherwise stated, all chemicals and materials were ordered from Merck Life Science. Each biological replicate was prepared in triplicates. […] The negative control contained buffer instead of NADPH solution. Samples were collected at 0, 10, 20 and 40 min or 0 and 40 min for the negative and double negative controls. The reaction was stopped by protein precipitation in 2 volumes of ice cold MeOH with 200 nM imipramine (as an internal standard for LC-MS analysis). Then, the extract was mixed (1 min, 1000 rpm), filtered through 0.22 μm filter on 96-well plate vacuum manifold and subjected to LC-MS analysis. Metabolic stability in mouse and human cryopreserved hepatocytes was performed in suspension on 96-well tissue culture plates at 1 μM concentration in Williams medium E with CM4000 supplements (ThermoFisher Scientific). Cells were thawed according to the manufacturers manual, counted and preincubated for 30 min in a CO2 incubator (5% CO2, 37 °C, 5 · 10^4 cells/well). For the negative control cells were thermally inactivated for 5 min at 95 °C. Similarly to microsomal stability, experiments were done in technical triplicates, with the additional time point at 80’. Samples for LC-MS analysis were prepared as described for microsomes. Intrinsic clearance (Clint) was calculated using the rate of compound disappearance from the reaction. The elimination rate constant (k) was calculated as a module of slope of the linear regression from ln [substrate] vs time. Then, clearance was calculated as Clint = k/d, where d is protein or cell density for microsomal and hepatocyte stability, respectively.
The mobile phases were (A) 10 mM ammonium acetate pH 5.4 in water and (B) methanol. Samples were eluted using a timed, linear gradient from 30% B at 0 min to 90% B at 1.5 min then a hold 90% B to 2.5 min, after it back to initial 30% B to 2.6 min. The columns was equilibrated for up to 5 min. The flow rate was 0.5 mL/min. The injection volume was 3 μL.

PI3Kδ [2] = molecular target: T1, PI3Kδ (Homo sapiens, UniProt O00329); test: ADP-Glo Kinase Assay; format: biochemical
T1 construct: purchased Merck Millipore
Description: The potency and selectivity of CPL302-253 against different isotypes of class I PI3K were assessed using ADP-Glo Kinase Assay (Promega) according to manufacturer’s protocol. PI3Kα, PI3Kβ, PI3Kδ, PI3Kγ were purchased from Merck Millipore. The inhibition of examined kinases activity was evaluated by measuring their ability to converse ATP to ADP in the presence of decreasing doses of tested compound (from 400 μM to 0,00004 μM). Kinases were mixed with 1 mM PIP2:PS substrate (Phosphoinositol-4,5-bisphosphate (PIP2) lipid vesicles with phosphoserine (PS), Thermofisher Scientific) and 30 μM ATP in an assay buffer (50 mM HEPES pH 7.5,50 mM NaCl, 3 mM MgCl2, 25 μg/ml BSA). The mixture was incubated in the dark for 1 h at 25°C (PI3Kα and PI3Kδ) or at 30°C (PI3Kβ, PI3Kγ). Next ADP-Glo reagent 1 was added to stop the reaction and remove any remaining ATP. The samples were incubated for 40 min at 25°C. Subsequently the ADP-Glo reagent 2 was added and reactions were incubated for 40 min at 25°C. Finally, luminescence was assessed and the IC50 was calculated.
T1 sequence (O00329 whole entry): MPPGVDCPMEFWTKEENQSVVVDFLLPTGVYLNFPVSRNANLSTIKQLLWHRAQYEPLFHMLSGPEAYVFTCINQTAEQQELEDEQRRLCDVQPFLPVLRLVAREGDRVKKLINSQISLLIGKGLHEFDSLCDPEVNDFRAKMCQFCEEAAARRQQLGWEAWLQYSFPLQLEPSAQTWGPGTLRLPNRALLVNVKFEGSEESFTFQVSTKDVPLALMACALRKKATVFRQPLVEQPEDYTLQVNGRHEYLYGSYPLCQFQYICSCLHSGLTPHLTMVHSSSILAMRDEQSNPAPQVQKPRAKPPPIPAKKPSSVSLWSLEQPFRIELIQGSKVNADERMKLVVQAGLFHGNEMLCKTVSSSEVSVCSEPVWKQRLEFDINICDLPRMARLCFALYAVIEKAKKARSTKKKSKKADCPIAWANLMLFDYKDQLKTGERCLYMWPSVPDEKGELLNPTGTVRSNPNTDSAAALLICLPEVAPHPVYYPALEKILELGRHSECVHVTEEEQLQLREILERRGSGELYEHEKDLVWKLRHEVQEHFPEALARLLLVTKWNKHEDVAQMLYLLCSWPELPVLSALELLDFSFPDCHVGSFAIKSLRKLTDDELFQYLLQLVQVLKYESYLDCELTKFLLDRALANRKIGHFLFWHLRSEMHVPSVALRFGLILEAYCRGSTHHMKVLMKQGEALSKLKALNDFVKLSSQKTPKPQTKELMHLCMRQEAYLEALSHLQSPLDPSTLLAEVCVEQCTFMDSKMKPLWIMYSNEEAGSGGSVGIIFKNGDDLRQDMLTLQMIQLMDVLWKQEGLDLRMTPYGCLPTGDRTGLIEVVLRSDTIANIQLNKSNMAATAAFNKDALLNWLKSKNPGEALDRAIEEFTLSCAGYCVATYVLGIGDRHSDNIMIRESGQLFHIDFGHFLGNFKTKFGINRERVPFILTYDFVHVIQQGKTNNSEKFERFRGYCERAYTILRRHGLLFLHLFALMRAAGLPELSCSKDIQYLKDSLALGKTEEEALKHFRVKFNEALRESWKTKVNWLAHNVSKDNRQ
T1 sequence (P27986 whole entry partner): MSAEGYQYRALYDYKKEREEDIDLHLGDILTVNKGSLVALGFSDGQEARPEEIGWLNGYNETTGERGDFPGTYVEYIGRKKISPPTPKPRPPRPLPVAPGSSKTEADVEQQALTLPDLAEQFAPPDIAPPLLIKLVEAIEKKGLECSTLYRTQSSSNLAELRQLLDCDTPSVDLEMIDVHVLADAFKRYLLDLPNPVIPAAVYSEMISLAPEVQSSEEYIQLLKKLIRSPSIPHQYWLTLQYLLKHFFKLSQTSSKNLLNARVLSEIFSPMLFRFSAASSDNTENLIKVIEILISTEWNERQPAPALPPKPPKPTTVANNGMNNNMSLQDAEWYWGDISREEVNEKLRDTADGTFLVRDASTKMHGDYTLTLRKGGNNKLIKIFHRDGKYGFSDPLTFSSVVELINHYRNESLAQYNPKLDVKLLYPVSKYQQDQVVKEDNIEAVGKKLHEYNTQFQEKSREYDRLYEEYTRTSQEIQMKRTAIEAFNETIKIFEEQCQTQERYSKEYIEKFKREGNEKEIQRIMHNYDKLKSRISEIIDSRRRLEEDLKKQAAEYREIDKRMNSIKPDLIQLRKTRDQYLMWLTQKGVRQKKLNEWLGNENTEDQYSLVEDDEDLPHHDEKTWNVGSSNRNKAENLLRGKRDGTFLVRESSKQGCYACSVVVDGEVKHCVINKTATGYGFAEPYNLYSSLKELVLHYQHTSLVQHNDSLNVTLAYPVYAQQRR

PI3Kδ [3] = molecular target: T2, PI3Kδ (Homo sapiens, UniProt O00329); test: KINOMEScan competitive binding assay, Kd
T2 construct: purchased Discoverex (KINOMEscan service)
Description: The inhibitor-kinase binding affinity was assessed in KINOMEscan™ assay (Discoverex) according to service provider’s protocol. In brief, in this binding assay the studied compound in solution is incubated with DNA-tagged kinase and kinase active-site directed ligand bound to the beads. The compound competes for binding to kinase with the immobilized ligand. After incubation beads are removed from the solution and kinase bound to ligand is quantified by qPCR. The strength of compound binding is determined based on its ability to block kinase-ligand binding. 11-point 3-fold serial dilution of CPL302-253 was used in order to determine its binding constants (Kd) against different isotypes of class I PI3K. The single concentration of CPL302-253 was used in order to determine its specificity in abroad panel of 468 human kinases. The measure of compounds affinity to each kinase in the panel was the percentage of kinase activity inhibition by tested ligand in comparison to the control.
T2 sequence (O00329 whole entry): as the sequence (O00329 whole entry) above

[4] = system: GPCR, transporters, ion channels, nuclear receptors, kinases and non-kinase enzymes; test: SafetyScan44 panel, overall; format: cell-based; details: 10 μM; negative if not exceeding 70% of the control
Description: SafetyScan44 assay was performed by DiscoverX according to service provider’s protocol.

CC(C)(C)N1CCN(Cc2cc3nc(-c4cncc5[nH]ccc45)cc(N4CCOCC4)n3n2)CC1 [CPL302-253]
IC50 (basophils; 25 min, human whole blood, 25 min, read-out: IC50 CD63 expression after basophils activation): 36 nM
IgE (basophil activation, Fig 4D) (basophils; Concentration 1 (unit not given)): 93.65
IgE (basophil activation, Fig 4D) (basophils; Concentration 3 (unit not given)): 103.18
IgE (basophil activation, Fig 4D) (basophils; Concentration 10 (unit not given)): 85.97
IgE (basophil activation, Fig 4D) (basophils; Concentration 33 (unit not given)): 51.03
IgE (basophil activation, Fig 4D) (basophils; Concentration 100 (unit not given)): 22
IgE (basophil activation, Fig 4D) (basophils; Concentration 333 (unit not given)): 3.87
IgE (basophil activation, Fig 4D) (basophils; Concentration 1000 (unit not given)): -1.11
IgE (basophil activation, Fig 4D) (basophils; Concentration 3333 (unit not given)): 5.06
IgE (basophil activation, Fig 4D) (basophils; Concentration 10000 (unit not given)): -1.49
IC50 (basophils; Homo sapiens, basophil CD63 expression, read-out: IC50 (Fig 4D, printed in the picture)): 36.2 nM
AC50 at 48 h (in vitro): > 100000 nM
degradation in human hepatocytes [1]: degradation was not observed at all
Clint, times lower when compared to verapamil ([1]; CD-1, mouse, 1 μM): ~30 times
Clint (Fig 5D), single replicates ([1]; human, 1 μM): 0
Clint, times lower when compared to verapamil ([1]; human, 1 μM): ~70 times
degradation, fold slower as compared to verapamil ([1]; mouse, 1 μM): 11 fold
IC50 (PI3Kδ [2]): 12.2 nM
Kd (PI3Kδ [3]): 0.85 nM
inhibition or activation of the studied pathways in SafetyScan44 [4]: neither inhibits nor activates any of the studied pathways
